Test results as given in ChEMBL document CHEMBL1201862, “PubChem BioAssay data set” (2004).
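Exposure lasted 48 hours, with cells grown in 96-well plates and compounds tested at five concentrations. The concentration for 50% growth inhibition is given as GI50.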 Active and inactive are the calls of the source. No stated cut-off is given here; in the data, active = GI50 up to about 1.1 µM and inactive = higher.

Key:
Assay in all cases: inhibition of tumour cell growth, NCI panel, 48 h
[1] = tested on: K562
[2] = tested on: SW-620
[3] = tested on: DLD-1
[4] = tested on: HCT-15
[5] = tested on: HCC 2998
[6] = tested on: OVCAR-5
[7] = tested on: RXF 631
[8] = tested on: SF-539
[9] = tested on: SK-MEL-5
[10] = tested on: HT-29
[11] = tested on: UACC-62
[12] = tested on: SF-268
[13] = tested on: LXFL 529
[14] = tested on: HCT-116
[15] = tested on: UO-31
[16] = tested on: NCI-H226
[17] = tested on: SK-OV-3
[18] = tested on: RXF 393
[19] = tested on: DMS-114
[20] = tested on: 786-0
[21] = tested on: DMS-273
[22] = tested on: HOP-62
[23] = tested on: M19-MEL
[24] = tested on: OVCAR-4
[25] = tested on: IGROV-1
[26] = tested on: KM-20L2
[27] = tested on: SNB-19
[28] = tested on: EKVX
[29] = tested on: TK-10
[30] = tested on: SN12C
[31] = tested on: NCI-H460
[32] = tested on: NCI-H23
[33] = tested on: Malme-3M
[34] = tested on: SNB-78
[35] = tested on: LOX IMVI
[36] = tested on: KM12
[37] = tested on: SK-MEL-2
[38] = tested on: NCI-H522
[39] = tested on: UACC-257
[40] = tested on: HOP-18
[41] = tested on: SF-295
[42] = tested on: SNB-75
[43] = tested on: CCRF-CEM
[44] = tested on: A498
[45] = tested on: ACHN
[46] = tested on: M14
[47] = tested on: MOLT-4
[48] = tested on: COLO 205
[49] = tested on: SK-MEL-28
[50] = tested on: A549
[51] = tested on: U-251
[52] = tested on: OVCAR-3
[53] = tested on: CAKI-1
[54] = tested on: HOP-92
[55] = tested on: HL-60
[56] = tested on: OVCAR-8
[57] = tested on: SR
[58] = tested on: RPMI-8226
[59] = tested on: PC-3
[60] = tested on: MDA-MB-231
[61] = tested on: Hs-578T
[62] = tested on: DU-145
[63] = tested on: MDA-MB-435
[64] = tested on: BT-549
[65] = tested on: NCI/ADR-RES
[66] = tested on: XF498
[67] = tested on: MCF7
[68] = tested on: T47D
[69] = tested on: MDA-N

## Cc1ccccc1-n1c(C)nc(-c2ccccc2)cc1=O
[1]
  GI50: > 100 µM (inactive)
[2]
  GI50: > 100 µM (inactive)
[3]
  GI50: > 100 µM (inactive)
[4]
  GI50: > 100 µM
[5]
  GI50: > 100 µM (inactive)
[6]
  GI50: > 100 µM (inactive)
[7]
  GI50: > 100 µM (inactive)
[8]
  GI50: > 100 µM (inactive)
[9]
  GI50: > 100 µM (inactive)
[10]
  GI50: > 100 µM (inactive)
[11]
  GI50: > 100 µM (inactive)
[12]
  GI50: > 100 µM (inactive)
[13]
  GI50: > 100 µM (inactive)
[14]
  GI50: > 100 µM (inactive)
[15]
  GI50: > 100 µM (inactive)
[16]
  GI50: > 100 µM (inactive)
[17]
  GI50: > 100 µM (inactive)
[18]
  GI50: > 100 µM (inactive)
[19]
  GI50: > 100 µM (inactive)
[20]
  GI50: > 100 µM (inactive)
[21]
  GI50: > 100 µM (inactive)
[22]
  GI50: > 100 µM (inactive)
[23]
  GI50: > 100 µM (inactive)
[24]
  GI50: > 100 µM (inactive)
[25]
  GI50: > 100 µM (inactive)
[26]
  GI50: > 100 µM (inactive)
[27]
  GI50: > 100 µM (inactive)
[28]
  GI50: > 100 µM (inactive)
[29]
  GI50: > 100 µM (inactive)
[30]
  GI50: > 100 µM (inactive)
[31]
  GI50: > 100 µM (inactive)
[32]
  GI50: > 100 µM (inactive)
[33]
  GI50: > 100 µM (inactive)
[34]
  GI50: > 100 µM (inactive)
[35]
  GI50: > 100 µM (inactive)
[36]
  GI50: > 100 µM (inactive)
[37]
  GI50: > 100 µM (inactive)
[38]
  GI50: > 100 µM (inactive)
[39]
  GI50: > 100 µM (inactive)
[40]
  GI50: > 100 µM (inactive)
[41]
  GI50: > 100 µM (inactive)
[42]
  GI50: 37.7 µM (inactive)
[43]
  GI50: > 100 µM (inactive)
[44]
  GI50: > 100 µM (inactive)
[45]
  GI50: > 100 µM (inactive)
[46]
  GI50: > 100 µM (inactive)
[47]
  GI50: > 100 µM (inactive)
[48]
  GI50: > 100 µM (inactive)
[49]
  GI50: > 100 µM (inactive)
[50]
  GI50: > 100 µM (inactive)
[51]
  GI50: > 100 µM (inactive)
[52]
  GI50: > 100 µM (inactive)
[53]
  GI50: > 100 µM (inactive)
[54]
  GI50: > 100 µM (inactive)
[55]
  GI50: > 100 µM (inactive)
[56]
  GI50: > 100 µM (inactive)

## COc1cc(C2[C@H]3C(=O)N(c4ccc(Cc5ccc(N6C(=O)[C@@H]7ON(c8ccccc8)C(c8cc(OC)c(OC)c(OC)c8)[C@@H]7C6=O)cc5)cc4)C(=O)[C@H]3ON2c2ccccc2)cc(OC)c1OC (stereo not given in full)
[1]
  GI50: > 100 µM (inactive)
[57]
  GI50: > 100 µM (inactive)
[2]
  GI50: > 100 µM (inactive)
[3]
  GI50: > 100 µM (inactive)
[4]
  GI50: > 100 µM
[5]
  GI50: > 100 µM (inactive)
[6]
  GI50: > 100 µM (inactive)
[7]
  GI50: > 100 µM (inactive)
[8]
  GI50: > 100 µM (inactive)
[9]
  GI50: 38.5 µM (inactive)
[10]
  GI50: > 100 µM (inactive)
[11]
  GI50: 95.3 µM (inactive)
[12]
  GI50: > 100 µM (inactive)
[14]
  GI50: > 100 µM (inactive)
[15]
  GI50: > 100 µM (inactive)
[16]
  GI50: > 100 µM (inactive)
[17]
  GI50: > 100 µM (inactive)
[18]
  GI50: > 100 µM (inactive)
[19]
  GI50: > 100 µM (inactive)
[20]
  GI50: > 100 µM (inactive)
[21]
  GI50: > 100 µM (inactive)
[22]
  GI50: > 100 µM (inactive)
[23]
  GI50: > 100 µM (inactive)
[24]
  GI50: > 100 µM (inactive)
[25]
  GI50: > 100 µM (inactive)
[26]
  GI50: > 100 µM (inactive)
[27]
  GI50: > 100 µM (inactive)
[28]
  GI50: > 100 µM (inactive)
[29]
  GI50: > 100 µM (inactive)
[30]
  GI50: > 100 µM (inactive)
[31]
  GI50: > 100 µM (inactive)
[32]
  GI50: > 100 µM (inactive)
[33]
  GI50: 46.3 µM (inactive)
[34]
  GI50: > 100 µM (inactive)
[35]
  GI50: > 100 µM (inactive)
[36]
  GI50: > 100 µM (inactive)
[37]
  GI50: > 100 µM (inactive)
[38]
  GI50: > 100 µM (inactive)
[39]
  GI50: > 100 µM (inactive)
[40]
  GI50: > 100 µM (inactive)
[41]
  GI50: > 100 µM (inactive)
[42]
  GI50: > 100 µM (inactive)
[43]
  GI50: > 100 µM (inactive)
[44]
  GI50: > 100 µM (inactive)
[45]
  GI50: > 100 µM (inactive)
[46]
  GI50: 17 µM (inactive)
[47]
  GI50: > 100 µM (inactive)
[48]
  GI50: > 100 µM (inactive)
[58]
  GI50: > 100 µM (inactive)
[49]
  GI50: > 100 µM (inactive)
[50]
  GI50: > 100 µM (inactive)
[51]
  GI50: > 100 µM (inactive)
[52]
  GI50: > 100 µM (inactive)
[53]
  GI50: > 100 µM (inactive)
[55]
  GI50: > 100 µM (inactive)
[56]
  GI50: > 100 µM (inactive)

## CC[N+]1(C)CCC(O)(/C=C/c2ccccc2)C(C(=O)/C=C/c2ccccc2)C1 (stereo not given)
[59]
  GI50: 14.6 µM (inactive)
[60]
  GI50: 10.8 µM (inactive)
[1]
  GI50: 2.7 µM (inactive)
[61]
  GI50: 28.4 µM (inactive)
[57]
  GI50: 2.34 µM (inactive)
[2]
  GI50: 2.45 µM (inactive)
[3]
  GI50: 4.98 µM (inactive)
[4]
  GI50: 4.54 µM
[5]
  GI50: 16.7 µM (inactive)
[6]
  GI50: 18.1 µM (inactive)
[8]
  GI50: 7.43 µM (inactive)
[9]
  GI50: 16.6 µM (inactive)
[10]
  GI50: 7.59 µM (inactive)
[11]
  GI50: 16.9 µM (inactive)
[12]
  GI50: 15.6 µM (inactive)
[13]
  GI50: 2.79 µM (inactive)
[14]
  GI50: 6 µM (inactive)
[62]
  GI50: 19.1 µM (inactive)
[15]
  GI50: 15.6 µM (inactive)
[16]
  GI50: 14.7 µM (inactive)
[17]
  GI50: 18.2 µM (inactive)
[18]
  GI50: 7.62 µM (inactive)
[63]
  GI50: 12.2 µM (inactive)
[19]
  GI50: 6.62 µM (inactive)
[20]
  GI50: 4.02 µM (inactive)
[21]
  GI50: 4.72 µM (inactive)
[22]
  GI50: 19.6 µM (inactive)
[23]
  GI50: 9.98 µM (inactive)
[24]
  GI50: 13.7 µM (inactive)
[25]
  GI50: 18.7 µM (inactive)
[26]
  GI50: 18.3 µM (inactive)
[27]
  GI50: 15.3 µM (inactive)
[28]
  GI50: 22.5 µM (inactive)
[64]
  GI50: 15.7 µM (inactive)
[29]
  GI50: 7.28 µM (inactive)
[30]
  GI50: 7.23 µM (inactive)
[31]
  GI50: 15 µM (inactive)
[32]
  GI50: 15.2 µM (inactive)
[33]
  GI50: 15 µM (inactive)
[65]
  GI50: 30.6 µM (inactive)
[34]
  GI50: 24 µM (inactive)
[35]
  GI50: 2.79 µM (inactive)
[36]
  GI50: 3.71 µM (inactive)
[37]
  GI50: 19.8 µM (inactive)
[38]
  GI50: 1.99 µM (inactive)
[39]
  GI50: 10.2 µM (inactive)
[40]
  GI50: 16.6 µM (inactive)
[41]
  GI50: 16.7 µM (inactive)
[42]
  GI50: 14.7 µM (inactive)
[66]
  GI50: 8.43 µM (inactive)
[43]
  GI50: 1.94 µM (inactive)
[44]
  GI50: 21.1 µM (inactive)
[45]
  GI50: 11.1 µM (inactive)
[46]
  GI50: 11.3 µM (inactive)
[47]
  GI50: 2.13 µM (inactive)
[67]
  GI50: 3.05 µM (inactive)
[48]
  GI50: 3.44 µM (inactive)
[58]
  GI50: 0.706 µM (active)
[68]
  GI50: 15.3 µM (inactive)
[49]
  GI50: 7.4 µM (inactive)
[50]
  GI50: 20.3 µM (inactive)
[51]
  GI50: 8 µM (inactive)
[52]
  GI50: 9.04 µM (inactive)
[53]
  GI50: 1.85 µM (inactive)
[54]
  GI50: 9.46 µM (inactive)
[55]
  GI50: 2.31 µM (inactive)
[56]
  GI50: 9.1 µM (inactive)
[69]
  GI50: 6.11 µM (inactive)
